Consider one compound from article PMC8150775, “Repositioning Azelnidipine as a Dual Inhibitor Targeting CD47/SIRPα and TIGIT/PVR Pathways for Cancer Immuno-Therapy” (Biomolecules, 2021).

Structures are written as SMILES.

The test system of assay [1] is CT26 cells. The experiment in a line: Phagocytosis assay, BMDM co-cultured with CFSE-labeled CT26 cells. Format: cell-based, mouse. As to conditions: 20 μM, 4 h. As to the method: Bone marrow-derived macrophage (BMDM) cells were isolated from C57BL/6 or BALB/c mice and induced with 20 ng/mL of GM-CSF (Peprotech, Rocky Hill, CT, USA) for 7 days. Meanwhile, the medium was replaced with fresh medium containing the cytokine and the adherent cells were harvested. Phagocytosis assays were performed by a co-culture of the BMDM macrophages with carboxyfluorescein succinimidyl ester-labeled (CFSE^+) or GFP^+ tumor cells at a ratio of 1:4 in a serum-free medium at 37 °C for 4 h, in low-attachment 96-well tissue culture plates (Corning, New York, NY, USA). The cells were harvested and the macrophages were identified by a flow cytometry using anti-F4/80 antibody (eBioscience, San Diego, CA, USA). Then, 7-AAD (eBioscience) was used to exclude the dead cells. The effects of azelnidipine (20 μM) on phagocytosis by BMDM cells were tested, and the anti-CD47 antibody (clone: miap301) were used as the positive control. Phagocytosis rate was determined with the formulation: F4/80^+GFP^+ or F4/80^+CFSE^+ cells/ Total F4/80^+ cells.
Figure 4 Azelnidipine enhances macrophage mediated phagocytosis of the tumor cells. The effects of the azelnidipine on the phagocytosis of the macrophages were tested by a co-culture of the tumor cells and BMDM cell derived from C57BL/6 or BALB/c mice. […] GFP^+ or CFSE^+ BMDMs were detected by a flow cytometry. […]

Assay [2] addresses T1, mouse TIGIT/PVR (Mus musculus, UniProt F6V4I7).
T1 construct: purchased Sino Biological 50259-M03H; host or cells: soluble protein purchased; TIGIT on CHOK1-mTIGIT cells (lenti-viral transfection)
Briefly: Blocking assay, mouse PVR protein binding to CHOK1-mTIGIT cells. As to conditions: concentration gradient; read-out: IC50, blocking mouse TIGIT/PVR (mPVR binding). How it is done:
The abilities of small molecule inhibitors (SMIs) (purchased from TargetMol, Shanghai, China) to block the binding of SIRPα protein to CHOK1-CD47 cells or PVR protein to CHOK1-TIGIT cells were determined by flow cytometry, as previously reported. The SMIs at indicated concentrations were incubated with Fc-tagged SIRPα or PVR protein for 30 min at 4°C, followed by incubating with the indicated cells for another 30 min. Human SIRPα protein (SIA-[…], ACRO Biosystem, Beijing, China), mouse SIRPα protein (SIA-[…], ACRO Biosystem, Beijing, China), human PVR protein (CD5-[…], ACRO Biosystem, Beijing, China), and mouse PVR protein (50259-[…], Sino Biological, Beijing, China) were used. PE-conjugated anti-human IgG antibody was used to detect the Fc protein bind to cells. Cells incubated with the Fc proteins and anti-human IgG antibody without the SMIs serve as the positive control. The mean fluorescent intensity (MFI) of each sample was detected and recorded by a flow cytometry. The blocking efficacy of the SMIs was calculated as the equation: (MFI of the positive control-MFI of the SMI)/MFI of the positive control × 100%.

For assay [3], the system named is various tumor cells. More on the design: method as in earlier work. To be noted: cited from earlier work.
Assay [4] concerns the target T2, human CD47/SIRPα (Homo sapiens, UniProt P78324).
T2 construct: purchased ACRO Biosystem SIA-H5251; host or cells: soluble protein purchased; CD47 on CHOK1-hCD47 cells (lenti-viral transfection)
Briefly: Blocking assay, human SIRPα protein binding to CHOK1-hCD47 cells. To be noted: concentration gradient; read-out: IC50, blocking human CD47/SIRPα (hSirpα binding). As to the method:
The abilities of small molecule inhibitors (SMIs) (purchased from TargetMol, Shanghai, China) to block the binding of SIRPα protein to CHOK1-CD47 cells or PVR protein to CHOK1-TIGIT cells were determined by flow cytometry, as previously reported. The SMIs at indicated concentrations were incubated with Fc-tagged SIRPα or PVR protein for 30 min at 4°C, followed by incubating with the indicated cells for another 30 min. Human SIRPα protein (SIA-H5251, ACRO Biosystem, Beijing, China), mouse SIRPα protein (SIA-M5258, ACRO Biosystem, Beijing, China), human PVR protein (CD5-H82F6, ACRO Biosystem, Beijing, China), and mouse PVR protein (50259-M03H, Sino Biological, Beijing, China) were used. PE-conjugated anti-human IgG antibody was used to detect the Fc protein bind to cells. Cells incubated with the Fc proteins and anti-human IgG antibody without the SMIs serve as the positive control. The mean fluorescent intensity (MFI) of each sample was detected and recorded by a flow cytometry. The blocking efficacy of the SMIs was calculated as the equation: (MFI of the positive control-MFI of the SMI)/MFI of the positive control × 100%.

T2 sequence (P78324 31-370 limits assumed): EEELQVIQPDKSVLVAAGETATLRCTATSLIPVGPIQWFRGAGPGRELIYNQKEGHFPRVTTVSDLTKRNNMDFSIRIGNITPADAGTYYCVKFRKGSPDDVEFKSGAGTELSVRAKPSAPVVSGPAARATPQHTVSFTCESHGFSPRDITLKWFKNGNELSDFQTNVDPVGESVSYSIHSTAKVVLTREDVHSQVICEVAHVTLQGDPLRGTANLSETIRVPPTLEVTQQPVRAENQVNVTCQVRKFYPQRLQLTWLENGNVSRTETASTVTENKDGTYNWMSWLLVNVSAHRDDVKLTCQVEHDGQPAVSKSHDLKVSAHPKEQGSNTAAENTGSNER
T1 sequence (F6V4I7 29-408): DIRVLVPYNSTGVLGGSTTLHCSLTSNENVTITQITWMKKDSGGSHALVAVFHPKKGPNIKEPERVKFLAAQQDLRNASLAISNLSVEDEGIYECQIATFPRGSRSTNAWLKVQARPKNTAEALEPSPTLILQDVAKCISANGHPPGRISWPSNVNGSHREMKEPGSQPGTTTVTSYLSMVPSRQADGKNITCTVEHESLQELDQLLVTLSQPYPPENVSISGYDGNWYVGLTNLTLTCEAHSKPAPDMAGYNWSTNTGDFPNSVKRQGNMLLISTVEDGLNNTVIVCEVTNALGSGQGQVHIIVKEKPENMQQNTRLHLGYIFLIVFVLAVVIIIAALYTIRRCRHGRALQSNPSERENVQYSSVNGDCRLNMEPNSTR

For the compound `CC1=C(C(=O)OC(C)C)C(c2cccc([N+](=O)[O-])c2)C(C(=O)OC2CN(C(c3ccccc3)c3ccccc3)C2)=C(N)N1` (stereo not shown) [Azelnidipine], in assay [1], the “phagocytosis of CT26 cells by BMDM cells” value is on record as “significantly enhance”. The values for the IC50 in assay [2] and in assay [4] were roughly 82 µM and roughly 36 µM, respectively. For the same compound, in assay [3], the “growth of various tumor cells in vitro” value is reported as “inhibit the growth of various tumor cells in vitro”.
